# Data as given in the supplement of paper PMC10307832.
# Key:
# Test in all cases: relative viability (nuclei count vs DMSO), 5 days (fraction); higher = more cells survive
# [1] = system: A549
# Method in brief: (§1)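 Medians of duplicate plates are given as relative viability. That measure is the nuclei count in treated wells divided by the count in vehicle wells. Counts were taken on 4× images of lung cancer cell lines in 1536-well plates, 5 days after pin-tool dosing the day after seeding with one drug alone or a fixed anchor-drug dose plus five library-drug doses (not always all listed) in √10 steps.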
# [2] = system: ABC-1
# Method in brief: as §1
# [3] = system: HOP-62
# Method in brief: as §1
# [4] = system: NCI-H1355
# Method in brief: as §1
# [5] = system: NCI-H1648
# Method in brief: as §1
# [6] = system: NCI-H2009
# Method in brief: as §1
# [7] = system: NCI-H23
# Method in brief: as §1
# [8] = system: NCI-H322M
# Method in brief: as §1
# [9] = system: UMC-11
# Method in brief: as §1
structure (smiles),measurement,setting,value
COCC1(CO)C(=O)C2CCN1CC2 (stereo not given) [PRIMA-1MET] + Nc1ncn([C@H]2C[C@H](O)[C@@H](CO)O2)c(=O)n1 [Decitabine] (partner 2 µM),relative viability,[1]; first compound 0.2 µM,0.284
same,relative viability,[1]; first compound 2 µM,0.253
same,relative viability,[1]; first compound 6.325 µM,0.25
same,relative viability,[1]; first compound 20 µM,0.237
same,relative viability,[2]; first compound 0.2 µM,1.07
same,relative viability,[2]; first compound 2 µM,0.983
same,relative viability,[2]; first compound 6.325 µM,1.36
same,relative viability,[2]; first compound 20 µM,0.552
same,relative viability,[3]; first compound 0.2 µM,0.22
same,relative viability,[3]; first compound 0.6325 µM,0.217
same,relative viability,[3]; first compound 2 µM,0.207
same,relative viability,[3]; first compound 6.325 µM,0.203
same,relative viability,[3]; first compound 20 µM,0.169
same,relative viability,[4]; first compound 0.2 µM,0.366
same,relative viability,[4]; first compound 0.6325 µM,0.347
same,relative viability,[4]; first compound 2 µM,0.338
same,relative viability,[4]; first compound 6.325 µM,0.329
same,relative viability,[4]; first compound 20 µM,0.323
same,relative viability,[5]; first compound 0.2 µM,0.433
same,relative viability,[5]; first compound 2 µM,0.451
same,relative viability,[5]; first compound 20 µM,0.475
same,relative viability,[6]; first compound 0.2 µM,0.383
same,relative viability,[6]; first compound 0.6325 µM,0.389
same,relative viability,[6]; first compound 2 µM,0.341
same,relative viability,[6]; first compound 6.325 µM,0.345
same,relative viability,[6]; first compound 20 µM,0.153
same,relative viability,[7]; first compound 0.2 µM,0.277
same,relative viability,[7]; first compound 0.6325 µM,0.221
same,relative viability,[7]; first compound 2 µM,0.282
same,relative viability,[7]; first compound 6.325 µM,0.293
same,relative viability,[7]; first compound 20 µM,0.162
same,relative viability,[8]; first compound 0.2 µM,0.725
same,relative viability,[8]; first compound 0.6325 µM,0.696
same,relative viability,[8]; first compound 6.325 µM,0.714
same,relative viability,[8]; first compound 20 µM,0.6
same,relative viability,[9]; first compound 0.2 µM,0.675
same,relative viability,[9]; first compound 0.6325 µM,0.477
same,relative viability,[9]; first compound 2 µM,0.399
same,relative viability,[9]; first compound 6.325 µM,0.668
same,relative viability,[9]; first compound 20 µM,0.46
